# Test results published in article PMC11239830, “Synthetic macrolides overcoming MLSBK-resistant pathogens” (Cell Discovery, 2024).
# Like-named read-outs stand apart in the source and are kept apart here.
# Assays:
# [1] = test system: E. coli S30 extract protein synthesis; assay: In vitro E. coli transcription/translation assay; assay type: biochemical; settings: cell-free transcription/translation, materials from E. coli
# Source text: The in vitro transcription/translation assay for E. coli utilized materials from the E. coli S30 extract system for circular DNA (L1020, Promega, USA). This kit contains all the necessary components for efficient transcription and translation of a user-provided DNA template. To test the inhibition of protein synthesis, the assay uses plasmid pBESTluc, which contains the firefly luciferase gene, as the DNA template. The intensity of luminescence resulting from luciferase expression corresponds to the efficiency of protein synthesis. The luminescence intensity was quantified in the presence or absence of the tested compounds. […] This experiment was repeated twice independently.
# [2] = CCK-8 assay for cytotoxicity; assay type: cell-based, human
# Method: (§1) HepG2 cells (6 × 10^3) and HEK293T cells (4 × 10^3) were seeded into 96-well plates in 90 μL of DMEM medium containing 10% FBS per well. All test compounds were formulated as 10 mM stock solutions in DMSO (final concentration ≤ 0.5%). After overnight incubation, the test compound stock solution was diluted with DMEM medium containing 10% FBS to every target concentration, and 10 μL of each was added to each well. Three parallel experiments were set up for each compound. After incubation for 48 h, 10 μL of cell counting kit-8 (CCK-8) reagent was added to each well in sequence according to the manufacturer’s instructions. After incubating in a 37 °C incubator for 1–2 h, the absorbance was measured at a wavelength of 450 nm, and detected by ThermoScientific Multiskan FC (ThermoFisher Scientific, USA). This experiment was independently repeated three times. The data were processed by GraphPad Prism.
# [3] = test system: HepG2 cells; assay: CCK-8 assay for cytotoxicity; assay type: cell-based, human; settings: for cytotoxicity at 5 μM: HepG2, 5 μM, 48 h
# Method: as §1
# [4] = test system: HEK293T cells; assay: CCK-8 assay for cytotoxicity; assay type: cell-based, human; settings: 48 h; for cytotoxicity at 5 μM: HEK293T
# Summary of the method: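 Cells seeded at 6 × 10^3 (HepG2) or 4 × 10^3 (HEK293T) per well in DMEM/10% FBS, treated after overnight culture with compound dilutions for 48 h. Viability read with CCK-8 reagent; triplicate wells, three independent repeats.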
# [5] = test system: human ribosome (HEK293F whole-cell lysate); assay: Mammalian cell-free in vitro translation assay; assay type: biochemical; settings: human ribosomes, read-out: IC50, translation of Fluc mRNA
# Method: For the in vitro translation assay, the whole-cell extract was derived from cultured HEK293F cells. The translation reactions were conducted in a total volume of 10 μL, comprising 4 μL of the HEK293F extract, 1 μL 10× Translation Buffer containing 160 mM HEPESs-KOH (pH 7.6), 100 mM Creatine phosphate, 1 mM Spermidine, 10 mM ATP, 1 mM GTP, 20 mM DTT, 800 ng/μL CKM, 600 mM KOAc, 30 mM Mg(OAc)2 and 200 μM Amino acids. The reaction mixture also included 2 U of RiboLock RNase inhibitor (ThermoFisher Scientific), 0.5 mM D-luciferin (Promega), 1 μL of either antibiotic solution or solvent (water or 10% DMSO), as specified, and 100 ng mRNA (added as a 1 μL water solution after pre-incubation of the reaction mixture with antibiotic for 5 min at 30 °C). Following the addition of mRNA, the mixtures were transferred to a pre-heated 96-well CELL CULTER PLATE (WHB), sealed with a PCR plate seal, and incubated in the CLARIOstar plate reader (BMG Labtech) at 37 °C with continuous luciferase activity measurement, following established procedures[66],[67]. Luciferase activity values were determined based on light intensities at 60 min.
# [6] = test system: H. influenzae; assay: MIC, broth microdilution; assay type: cell-based, Haemophilus influenzae
# Summary of the method: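 Read-out is the lowest concentration without observed growth after 16–20 h at 37 °C, using the CLSI broth microdilution method.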
# [7] = test system: S. aureus; assay: MICs and MBCs against selected S. aureus isolates; assay type: cell-based, Staphylococcus aureus
# [8] = test system: S. aureus; assay: Time-kill kinetics assay; assay type: cell-based, Staphylococcus aureus
# Method: To further determine the bactericidal activity of MCX-219, a time-kill assay was performed according to the method described previously. The S. aureus cultured overnight was diluted 10^4 times with CAMHB broth and incubated for 2 h. […] The number of colonies was measured at 0 h, 1 h, 3 h, 6 h, 9 h and 24 h. A flask containing bacteria left unexposed to antibiotic was used as blank control, and telithromycin was used as the positive drug (comparator drug).
# [9] = human, HepG2 cells, HepG2 cell viability, 48 h, read-out: CC50
# [10] = Haemophilus influenzae, ATCC49247, H. influenzae ATCC49247, Azi-S, read-out: MIC
# [11] = Staphylococcus aureus, ATCC29213, S. aureus ATCC29213 (Table S10), read-out: MIC
# [12] = Staphylococcus aureus, MRSA, strain 1, MRSA, i-ermA
# [13] = Staphylococcus aureus, MRSA, strain 4, MRSA, i-ermA
# [14] = Staphylococcus aureus, MRSA, strain 5, MRSA, i-ermC
# [15] = Staphylococcus aureus, MRSA, strain 6, MRSA, c-ermB
# [16] = Staphylococcus aureus, MRSA, strain 7, MRSA, c-ermB
# [17] = Staphylococcus aureus, MRSA, strain 10, MRSA, c-ermB
# [18] = Staphylococcus aureus, MRSA, strain 11, MRSA, c-ermB
# [19] = Staphylococcus aureus, MSSA, strain 2, MSSA, i-ermC, read-out: MIC
# [20] = Staphylococcus aureus, MSSA, strain 3, MSSA, i-ermC, read-out: MIC
# [21] = Staphylococcus aureus, MSSA, strain 8, MSSA, c-ermB
# [22] = Staphylococcus aureus, S. aureus ATCC29213, read-out: MBC
# [23] = Staphylococcus aureus, strain 3, MSSA, i-ermC, read-out: MBC
smiles,measurement,setting,value
CC[C@H]1OC(=O)[C@H](C)[C@@H](OC(=O)NCCCOCCC#Cc2ccc3c(=O)c(C(=O)O)cn(C)c3c2)[C@H](C)[C@@H](O[C@@H]2O[C@H](C)C[C@H](N(C)C)[C@H]2O)[C@](C)(OC)C[C@@H](C)C(=O)[C@H](C)[C@H]2NC(=O)O[C@@]21C [MCX-190],IC50,[1],0.67 µM
same,CC50 at 48 h,[2]; [9],> 200 µM
same,cytotoxicity at 5 μM,[3],significantly reduced cytotoxicity compared to TcmX
same,CC50 (cytotoxicity),[3]; human HepG2 and HEK293T cells,essentially non-cytotoxic
same,cytotoxicity at 5 μM,[4],significantly reduced cytotoxicity compared to TcmX
same,IC50,[5],> 100 µM
CC[C@H]1OC(=O)[C@H](C)[C@@H](OC(=O)NCCCCCCC#Cc2ccc3c(=O)c(C(=O)O)cn(C)c3c2)[C@H](C)[C@@H](O[C@@H]2O[C@H](C)C[C@H](N(C)C)[C@H]2O)[C@](C)(OC)C[C@@H](C)C(=O)[C@H](C)[C@H]2NC(=O)O[C@@]21C [MCX-219],MIC,"[6]; H. influenzae ATCC49247, Azi-S, listed as 88g",4 µg/mL
same,MIC,[6]; [10],2 µg/mL
same,MBC/MIC,[7]; S. aureus ATCC29213,4
same,MIC,[7]; [11],0.25 µg/mL
same,MBC,[7]; [12],1 µg/mL
same,MIC,[7]; [12],0.25 µg/mL
same,MBC,[7]; [13],0.5 µg/mL
same,MIC,[7]; [13],0.12 µg/mL
same,MBC,[7]; [14],2 µg/mL
same,MIC,[7]; [14],1 µg/mL
same,MBC,[7]; [15],16 µg/mL
same,MIC,[7]; [15],2 µg/mL
same,MBC,[7]; [16],> 16 µg/mL
same,MIC,[7]; [16],2 µg/mL
same,MBC,[7]; [17],16 µg/mL
same,MIC,[7]; [17],4 µg/mL
same,MBC,[7]; [18],> 16 µg/mL
same,MIC,[7]; [18],2 µg/mL
same,MIC,[7]; [19],0.25 µg/mL
same,MIC,[7]; [20],0.25 µg/mL
same,MBC,[7]; [21],16 µg/mL
same,MIC,"[7]; Staphylococcus aureus, MSSA, strain 8, MSSA, c-ermB, read-out: MIC",4 µg/mL
same,MIC,"[7]; Staphylococcus aureus, MSSA, strain 9, MSSA, c-ermB, read-out: MIC",0.5 µg/mL
same,MBC,[7]; [22],1 µg/mL
same,MBC,[7]; [23],2 µg/mL
same,S. aureus isolates with bactericidal activity (MBC/MIC ≤ 4),[7]; selected S. aureus isolates,58.3%
same,MBC/MIC,"[7]; strain 1, MRSA, i-ermA",4
same,MBC,"[7]; strain 2, MSSA, i-ermC",2 µg/mL
same,MBC/MIC,"[7]; strain 2, MSSA, i-ermC",8
same,MBC/MIC,"[7]; strain 3, MSSA, i-ermC",8
same,MBC/MIC,"[7]; strain 4, MRSA, i-ermA",4
same,MBC/MIC,"[7]; strain 5, MRSA, i-ermC",2
same,MBC/MIC,"[7]; strain 6, MRSA, c-ermB",8
same,MBC/MIC,"[7]; strain 7, MRSA, c-ermB",> 8
same,MBC/MIC,"[7]; strain 8, MSSA, c-ermB",4
same,MBC/MIC,"[7]; strain 9, MSSA, c-ermB",4
same,MBC/MIC,"[7]; strain 10, MRSA, c-ermB",4
same,MBC/MIC,"[7]; strain 11, MRSA, c-ermB",> 8
same,time-kill kinetics,[8]; constitutively erm-modified S. aureus 15B196,bactericidal
same,time-kill kinetics,[8]; induciblely erm-modified S. aureus PU32,bacteriostatic
same,IC50,[1],1.19 µM
same,CC50 at 48 h,"[2]; human HepG2 and HEK293T cells, read-out: CC50 (cytotoxicity)",26 to 29 µM
same,CC50 at 48 h,[2]; [9],28.9 ± 2.68 µM
same,cytotoxicity at 5 μM,[3],significantly reduced cytotoxicity compared to TcmX
same,CC50,[4]; HEK293T cell viability,26 µM
same,cytotoxicity at 5 μM,[4],significantly reduced cytotoxicity compared to TcmX
same,IC50,[5],> 100 µM
"CC[C@H]1OC(=O)[C@H](C)C(=O)[C@H](C)[C@@H](O[C@@H]2O[C@H](C)C[C@H](N(C)C)[C@H]2O)[C@](C)(OC)C[C@@H](C)C(=O)[C@H](C)[C@H]2N(CCCCn3cnc(-c4cccnc4)c3)C(=O)O[C@]12C [telithromycin, reference compound]",MIC,[6]; [10],4 µg/mL
same,MIC,[7]; [11],0.12 µg/mL
same,MBC,"[7]; Staphylococcus aureus, MRSA, strain 1, MRSA, i-ermA, read-out: MBC",> 2 µg/mL
same,MIC,"[7]; Staphylococcus aureus, MRSA, strain 1, MRSA, i-ermA, read-out: MIC",0.25 µg/mL
same,MBC,"[7]; Staphylococcus aureus, MRSA, strain 4, MRSA, i-ermA, read-out: MBC",> 1 µg/mL
same,MIC,"[7]; Staphylococcus aureus, MRSA, strain 4, MRSA, i-ermA, read-out: MIC",0.12 µg/mL
same,MBC,"[7]; Staphylococcus aureus, MRSA, strain 5, MRSA, i-ermC, read-out: MBC",> 2 µg/mL
same,MIC,"[7]; Staphylococcus aureus, MRSA, strain 5, MRSA, i-ermC, read-out: MIC",0.25 µg/mL
same,MBC,"[7]; Staphylococcus aureus, MRSA, strain 6, MRSA, c-ermB, read-out: MBC",> 64 µg/mL
same,MIC,"[7]; Staphylococcus aureus, MRSA, strain 6, MRSA, c-ermB, read-out: MIC",8 µg/mL
same,MBC,"[7]; Staphylococcus aureus, MRSA, strain 7, MRSA, c-ermB, read-out: MBC",> 64 µg/mL
same,MIC,"[7]; Staphylococcus aureus, MRSA, strain 7, MRSA, c-ermB, read-out: MIC",8 µg/mL
same,MBC,"[7]; Staphylococcus aureus, MRSA, strain 10, MRSA, c-ermB, read-out: MBC",> 128 µg/mL
same,MIC,"[7]; Staphylococcus aureus, MRSA, strain 10, MRSA, c-ermB, read-out: MIC",16 µg/mL
same,MIC,[7]; [18],128 µg/mL
same,MIC,[7]; [19],0.12 µg/mL
same,MIC,[7]; [20],0.12 µg/mL
same,MIC,[7]; [21],> 256 µg/mL
same,MIC,"[7]; Staphylococcus aureus, MSSA, strain 9, MSSA, c-ermB",> 256 µg/mL
same,MBC,[7]; [22],> 1 µg/mL
same,MBC,[7]; [23],> 1 µg/mL
same,MBC,"[7]; strain 2, MSSA, i-ermC",> 1 µg/mL
